The supplement of paper PMC10307832

Assays:
Experiment in all cases: relative viability (nuclei count vs DMSO), 5 days (fraction); higher = more cells survive
Salubrinal + Bortezomib = compound: O=C(/C=C/c1ccccc1)NC(NC(=S)Nc1cccc2cccnc12)C(Cl)(Cl)Cl [Salubrinal] + CC(C)C[C@H](NC(=O)[C@H](Cc1ccccc1)NC(=O)c1cnccn1)B(O)O [Bortezomib] (partner 0.002 µM)
In short: (§1)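 Cells from lung cancer lines were seeded into 1536-well plates and, one day later, dosed by pin tool. Treatments were either a single drug or a fixed dose of an anchor drug with five library-drug doses (not always all listed) in √10 steps. After 5 days, nuclei were stained in a one-step fixation (final 0.05% Triton X-100, 1% formaldehyde, 1 ug/ml Hoechst) and counted on 4× images, and relative viability is the treated-to-vehicle nuclei ratio, as the median of duplicate plates.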

[1] = compound: Cc1ccc2nc(NCCN)c3ncc(C)n3c2c1 + O=C(c1cc(Cc2n[nH]c(=O)c3ccccc23)ccc1F)N1CCN(C(=O)C2CC2)CC1 [Olaparib] (partner 8 µM)
In short: as §1

[2] = compound: Cc1ccc2nc(NCCN)c3ncc(C)n3c2c1 + Cc1nc(NC(=O)N2CCC[C@H]2C(N)=O)sc1-c1ccnc(C(C)(C)C(F)(F)F)c1 [Alpelisib] (partner 2 µM)
In short: as §1

Salubrinal + Linsitinib = compound: O=C(/C=C/c1ccccc1)NC(NC(=S)Nc1cccc2cccnc12)C(Cl)(Cl)Cl [Salubrinal] + C[C@]1(O)C[C@@H](c2nc(-c3ccc4ccc(-c5ccccc5)nc4c3)c3c(N)nccn32)C1 [Linsitinib] (partner 1 µM)
In short: as §1

Cell Line | relative viability (Salubrinal + Bortezomib; first compound 0.08 µM) | relative viability (Salubrinal + Bortezomib; first compound 0.253 µM) | relative viability (Salubrinal + Bortezomib; first compound 0.8 µM) | relative viability (Salubrinal + Bortezomib; first compound 2.53 µM) | relative viability (Salubrinal + Bortezomib; first compound 8 µM) | relative viability ([1]; first compound 0.04 µM) | relative viability ([1]; first compound 0.1265 µM) | relative viability ([1]; first compound 0.4 µM) | relative viability ([1]; first compound 1.265 µM) | relative viability ([1]; first compound 4 µM) | relative viability ([2]; first compound 0.04 µM) | relative viability ([2]; first compound 0.1265 µM) | relative viability ([2]; first compound 0.4 µM) | relative viability ([2]; first compound 1.265 µM) | relative viability ([2]; first compound 4 µM) | relative viability (Salubrinal + Linsitinib; first compound 0.08 µM) | relative viability (Salubrinal + Linsitinib; first compound 0.253 µM) | relative viability (Salubrinal + Linsitinib; first compound 0.8 µM) | relative viability (Salubrinal + Linsitinib; first compound 2.53 µM) | relative viability (Salubrinal + Linsitinib; first compound 8 µM)
NCI-H23 | 1.25 | 0.871 | 1.2 | 1.04 | 1.16 | 0.37 | 0.324 | 0.319 | 0.276 | 0.242 | 0.893 | 0.572 | 0.797 | 0.614 | 0.696 | 0.576 | 0.473 | 0.516 | 0.67 | 0.535
HCC-366 | 1.21 | 0.608 | 1.22 | 1.08 | 1.05 | 0.388 | 0.394 | 0.36 | 0.352 | 0.366 | 0.552 | 0.329 | 0.455 | 0.433 | 0.276 | 1.01 | 0.408 | 0.883 | 0.671 | 0.57
EMC-BAC-2 | 1.16 | 0.974 | 1.09 | 1.16 | 1.17 | 0.519 | 0.502 | 0.507 | 0.456 | 0.488 | 0.748 | 0.722 | 0.72 | 0.793 | 0.719 | 0.901 | 0.682 | 0.856 | 0.77 | 0.858
NCI-H2405 | 1.11 | 0.963 | 1.02 | 1.04 | 1.05 | 0.91 | 0.795 | 0.927 | 0.825 | 0.779 | 0.835 | 0.698 | 0.801 | 0.728 | 0.696 | 1.07 | 1 | 0.861 | 0.889 | 0.843
EPLC-272H | 0.884 | 0.756 | 1.11 | 1.1 | 0.855 | 0.869 | 0.814 | 0.98 | 0.686 | 0.778 | 1.07 | 0.937 | 0.896 | 1.06 | 0.96 | 1.19 | 0.832 | 1.37 | 1.27 | 1.05
EBC-1 | 0.719 | 0.544 | 0.504 | 0.501 | 0.466 | 0.679 | 0.681 | 0.72 | 0.602 | 0.546 | 1.04 | 0.734 | 0.795 | 0.643 | 0.617 | 0.767 | 0.844 | 1.03 | 0.873 | 0.897
NCI-H1915 | 0.98 | 0.56 | 1.09 | 1.03 | 0.954 | 0.286 | 0.251 | 0.242 | 0.279 | 0.255 | 0.999 |  | 1.1 | 1.02 | 1.07 | 1.02 | 1.06 | 1.16 | 1.1 | 1.13
